Measurements taken from patent publication US20050101595A1, “N-containing cycloalkyl-substituted amino-thiazole derivatives and pharmaceutical compositions for inhibiting cell proliferation and methods for their use” (PFIZER INC., priority 2003, published 2005).
Where a name gives a salt, the structure may show the parent alone. Read-outs that look alike come from different tables or passages of the source.

Key:
[1] = molecular target: CDK2/Cyclin A (Homo sapiens, UniProt P24941); assay: Inhibition of CDK2/Cyclin A Retinoblastoma Kinase Activity; type: biochemical; conditions: for Ki: apparent Ki, CDK2/proteolyzed cyclin A, Rb fragment substrate, 25 μM ATP
Outline: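 CDK2 (10 or 19 nM), insect-cell expressed, gel-filtration purified with truncated cyclin A; Rb fragment substrate; 25 μM ATP; 10 mM HEPES pH 7.4, 10 mM MgCl2; 30° C, 60 or 75 min; EDTA stop; phosphocellulose/nitrocellulose capture, phosphorimager. % inhibition vs DMSO control, no-enzyme background subtracted.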

[2] = system: HCT-116 cell line; assay: Inhibition of cell growth, tetrazolium salt (MTT) assay; type: cell-based; conditions: for HCT-116 % Inhibition at 0.25 μM: 0.25 μM compound; for IC50: Homo sapiens, HCT-116, 120 h, MTT, three to five days, read-out: HCT-116 IC50
Outline: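 First, cells were seeded in McCoy's 5A medium and held 4 h. Next, inhibitor concentrations in 0.5% (v/v) DMSO were applied for three to five days at 37° C, 5% CO2. Finally, after 4 h with 0.2 mg/mL MTT and medium removal, solubilized formazan was measured at 540 nm.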

[3] = molecular target: human CDK4 and genetically truncated (1-264) cyclin D3 (Homo sapiens, UniProt P11802); assay: Inhibition of CDK4/Cyclin D Retinoblastoma Kinase Activity; type: biochemical; conditions: for Ki: apparent Ki, CDK4/truncated cyclin D3, Rb fragment substrate, 25 μM ATP
Chain of human CDK4 and genetically truncated (1-264) cyclin D3 (P11802 whole entry, the tested form may be a part): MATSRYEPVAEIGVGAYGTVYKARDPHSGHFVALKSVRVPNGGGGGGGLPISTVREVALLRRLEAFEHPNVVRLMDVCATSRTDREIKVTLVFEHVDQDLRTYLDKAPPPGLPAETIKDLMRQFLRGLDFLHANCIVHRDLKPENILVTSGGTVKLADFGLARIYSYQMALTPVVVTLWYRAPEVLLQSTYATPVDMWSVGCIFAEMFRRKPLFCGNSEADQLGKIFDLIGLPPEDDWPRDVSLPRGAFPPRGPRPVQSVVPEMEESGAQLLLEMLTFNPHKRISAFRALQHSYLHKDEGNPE
Chain of human CDK4 and genetically truncated (1-264) cyclin D3 (P30281 1-264 partner): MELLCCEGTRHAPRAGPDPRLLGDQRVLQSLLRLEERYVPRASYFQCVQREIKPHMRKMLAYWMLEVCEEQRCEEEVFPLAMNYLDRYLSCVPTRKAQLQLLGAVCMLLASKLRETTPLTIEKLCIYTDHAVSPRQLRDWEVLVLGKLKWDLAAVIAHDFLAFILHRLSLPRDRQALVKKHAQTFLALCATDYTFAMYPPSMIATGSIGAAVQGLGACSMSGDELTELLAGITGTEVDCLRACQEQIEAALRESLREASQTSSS
Outline: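 The enzyme complex (5 nM), expressed in co-infected insect cells, was incubated with recombinant Rb fragment, 25 μM radiolabelled ATP and 2% DMSO at 30 °C. Reactions were stopped with EDTA after 20 minutes, or 60 minutes for tight-binding inhibitors. Apparent Ki values came from competitive inhibition fits.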

[4] = 0.1 μM compound, HCT-116, Table 4

SMILES | CDK2 % Inhibition at 0.03 μM ([1]; 0.03 μM compound, Table 4) [%] | HCT-116 % Inhibition at 0.1 μM [2, 4] [%] | HCT-116 % Inhibition at 0.25 μM ([2]; HCT-116, Table 4) [%] | CDK4 % Inhibition at 0.03 μM ([3]; 0.03 μM compound, Table 4) [%] | Ki [1] [nM] | IC50 ([2]; first HCT-116 column (c4)) [nM] | IC50 ([2]; second HCT-116 column (c5)) [nM] | Ki [3] [nM] | other results
CCOC(=O)C(=O)N1CCC(Nc2nc(N)c(C(=O)c3c(F)cccc3F)s2)CC1 [Example Q39] | −13 | 0 | 25 | 17 | – | – | – | – | –
Nc1nc(NC2CCN(C(=O)/C=C/c3ccncc3)CC2)sc1C(=O)c1c(F)cccc1F [Example D6, 1-{[4-Amino-5-(2,6-difluoro-benzoyl)-thiazol-2-ylamino]-piperidin-1-yl)3-pyridin-4-yl-prop-2(E)-enone] | – | – | – | – | 160 | 1900 | 3900 | 67 | –
CC(=O)Nc1ccc(S(=O)(=O)N2CCC(Nc3nc(N)c(C(=O)c4c(F)cccc4F)s3)CC2)cc1 [Example F5, N-(4-{4-[4-Amino-5-(2,6-difluoro-benzoyl)-thiazol-2-ylamino]-piperidine-1-sulfonyl}-phenyl)-acetamide] | – | – | – | – | < 1 | 500 | 1300 | 1 | –
Nc1nc(NC2CCN(C(=O)Cc3cccs3)CC2)sc1C(=O)c1c(F)cccc1F [Example Q65] | 39 | 3 | 27 | 31 | – | – | – | – | –
Nc1nc(NC2CCN(S(=O)(=O)c3ccc(NCCO)nc3)CC2)sc1C(=O)c1c(F)cccc1F [Example G3, 1-(4-Amino-2{1-[6-(2-hydroxy-ethylamino)-pyridine-3-sulfonyl]-piperidin-4-ylamino}-thiazol-5-yl)-1-(2,6-difluoro-phenyl)-methanone] | – | – | – | – | < 1 | 1700 | > 5000 | 1.2 | –
Nc1nc(NC2CCN(S(=O)(=O)c3ccc(OCCn4ccnc4)nc3)CC2)sc1C(=O)c1c(F)cccc1F [Example H9, 1-(4-Amino-2-{1-[6-(2-imidazol-1-yl-ethoxy)-pyridine-3-sulfonyl]-piperidin-4-ylamino}-thiazol-5-yl)-1-(2,6-difluoro-phenyl)-methanone Hydrochloride] | – | – | – | – | < 0.5 | 480 | 3100 | 1.2 | –
CC1CC1C(=O)N1CCC(Nc2nc(N)c(C(=O)c3c(F)cccc3F)s2)CC1 (stereo not drawn) [Example R93] | – | – | – | – | – | – | – | – | CDK2 % Inhibition at 0.03 μM ([1]; at 0.03 μM): −10%; HCT-116 % Inhibition at 0.1 μM ([2]; HCT-116 cells, at 0.1 μM): 0%; HCT-116 5 Inhibition at 0.25 μM ([2]; HCT-116 cells): 42; CDK4 % Inhibition at 0.03 μM ([3]; at 0.03 μM): −1%
CCCCC(CC)C(=O)N1CCC(Nc2nc(N)c(C(=O)c3c(F)cccc3F)s2)CC1 (stereo not drawn) [Example R168] | – | – | – | – | – | – | – | – | CDK2 % Inhibition at 0.03 μM ([1]; at 0.03 μM): 6%; HCT-116 % Inhibition at 0.1 μM ([2]; HCT-116 cells, at 0.1 μM): 0%; HCT-116 5 Inhibition at 0.25 μM ([2]; HCT-116 cells): 42; CDK4 % Inhibition at 0.03 μM ([3]; at 0.03 μM): −4%
Nc1nc(NC2CCN(C(=O)/C=C/c3ccccc3)CC2)sc1C(=O)c1c(F)cccc1F [Example Q45] | 21 | 0 | 31 | 47 | – | – | – | – | –
Nc1nc(NC2CCN(C(=O)c3ccccc3Cl)CC2)sc1C(=O)c1c(F)cccc1F [Example Q13] | 13 | 5 | 43 | 48 | – | – | – | – | –
C/C=C/C(=O)N1CCC(Nc2nc(N)c(C(=O)c3c(F)cccc3F)s2)CC1 [Example Q46] | −9 | 0 | 27 | 25 | – | – | – | – | –
Nc1nc(NC2CCN(S(=O)(=O)c3ccc(-c4ccccc4)cc3)CC2)sc1C(=O)c1c(F)cccc1F [Example P65] | – | – | – | – | – | – | – | – | CDK2 % Inhibition at 0.03 μM ([1]; 0.03 μM compound, Table 3): 48%; HCT-116 % Inhibition at 0.1 μM ([2]; 0.1 μM compound, HCT-116, Table 3): 6%; HCT-116 % Inhibition at 0.25 μM ([2]; HCT-116, Table 3): 31%; CDK4 % Inhibition at 0.03 μM ([3]; 0.03 μM compound, Table 3): 65%
Cc1cccc(NC(=O)N2CCC(Nc3nc(N)c(C(=O)c4c(F)cccc4F)s3)CC2)c1 [Example O17] | – | – | – | – | – | – | – | – | CDK2 % Inhibition At 0.03 μM ([1]; 0.03 μM compound, Table 2): 32%; HCT-116 % Inhibition at 0.25 μM ([2]; HCT-116, Table 2): 8%; CDK4 % Inhibition at 0.03 μM ([3]; 0.03 μM compound, Table 2): 6%
